Test systems include NCI-H23 lung; COLO 205 colon; A498 renal; K-562 leukemia; U251 CNS; OVCAR-3 ovarian; SF-539 CNS; UACC-62 melanoma; HL-60(TB) leukemia; SNB-19 CNS.
What all share (test): inhibition of tumour cell growth, NCI panel, 48 h

Values joined by “and” are separate entries in the source; they are usually repeats but may differ in a detail not shown here. Equal entries are not always repeated.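 Five concentrations, 48 hours, 96-well plates. Abbreviation: GI50, concentration required for 50% inhibition of growth. The concentration for full growth arrest is given as TGI.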

Regarding `[Cl][Cd][Cl]`, the GI50 is 3.08 µM and 25.4 µM and 2.68 µM with NCI-H23 lung; > 46.7 µM and 12.9 µM in the experiment on COLO 205 colon; 14 µM in the experiment with A498 renal; 2.01 µM and 20 µM and 14.8 µM with K-562 leukemia; 14.7 µM and 13.6 µM in the experiment with U251 CNS; 3.26 µM and 12.1 µM and 6.94 µM with OVCAR-3 ovarian. For the same compound, the GI50 in the experiment on SF-539 CNS was 4.51 µM and 19.5 µM and 18.9 µM; in the experiment with UACC-62 melanoma, 5.02 µM and 20.2 µM and 7.81 µM; in the experiment with HL-60(TB) leukemia it was 39.4 µM and 18.6 µM; in the experiment on SNB-19 CNS it was > 44.1 µM and 49.9 µM. Besides, the TGI in the experiment on NCI-H23 lung was 58.1 µM and 10.8 µM; in the experiment on COLO 205 colon, > 69.2 µM and 36.3 µM; in the experiment on A498 renal, 32.9 µM; in the experiment with K-562 leukemia it was 51.3 µM and 147 µM; with U251 CNS it was 20.3 µM and 40.1 µM; with OVCAR-3 ovarian, 8 µM and 25.9 µM and 15.3 µM. Besides, the TGI in the experiment on SF-539 CNS is 47.4 µM and 62.5 µM; in the experiment with UACC-62 melanoma it was 35.9 µM and 20.8 µM; with HL-60(TB) leukemia, > 84.5 µM and 118 µM; in the experiment with SNB-19 CNS it was > 61 µM and 146 µM.

In the case of `COC1OC2COC(c3ccccc3)OC2C(O)C1Br` (stereo not given), the TGI with NCI-H23 lung, in the experiment on COLO 205 colon, in the experiment with A498 renal, with K-562 leukemia, in the experiment with U251 CNS and with OVCAR-3 ovarian was more than 100 µM in each case. For the same compound, the TGI in the experiment with SF-539 CNS, in the experiment on UACC-62 melanoma, in the experiment on HL-60(TB) leukemia and with SNB-19 CNS was more than 100 µM throughout.

For the compound `C=C1c2c(Cl)ccc(O)c2C(O)=C2C(=O)[C@]3(O)C(O)=C(C(N)=O)C(=O)[C@@H](N(C)C)[C@@H]3[C@@H](O)[C@H]12`, the GI50 is 1.08 µM with NCI-H23 lung; 1.11 µM in the experiment with COLO 205 colon; 0.663 µM with A498 renal; 1.66 µM in the experiment with K-562 leukemia; 0.949 µM with U251 CNS; 1.36 µM in the experiment with OVCAR-3 ovarian. For the same compound, the GI50 is 1.32 µM in the experiment with SF-539 CNS, 0.79 µM in the experiment with UACC-62 melanoma, 1.22 µM in the experiment on HL-60(TB) leukemia and 1.44 µM with SNB-19 CNS. The TGI in the experiment with NCI-H23 lung was 4.14 µM; with COLO 205 colon, 3.02 µM; in the experiment on A498 renal it was 4.09 µM; in the experiment with K-562 leukemia it was more than 50 µM; in the experiment on U251 CNS, 4.09 µM; in the experiment with OVCAR-3 ovarian, 5.25 µM. Further, the TGI with SF-539 CNS is 4.61 µM; in the experiment with UACC-62 melanoma, 2.73 µM; in the experiment on HL-60(TB) leukemia, 3.57 µM; in the experiment on SNB-19 CNS it was more than 50 µM.

On to `C/C=C(\C)C(=O)N[C@H]1C(O)C[C@]2(C)C3CC[C@@]4(C)C(CC[C@@H]4C(C)N(C)C)C3CCC2C1O` (stereo not given in full), for which the GI50 was 13.1 µM with NCI-H23 lung; 1.74 µM with COLO 205 colon; 10.4 µM with A498 renal; 1.9 µM with K-562 leukemia; 4.35 µM in the experiment on U251 CNS; 4.68 µM in the experiment on OVCAR-3 ovarian. Further, the GI50 in the experiment with SF-539 CNS is 1.61 µM; with UACC-62 melanoma it was 2.18 µM; in the experiment with HL-60(TB) leukemia it was 4.44 µM; in the experiment on SNB-19 CNS it was 18.8 µM. In addition, the TGI in the experiment on NCI-H23 lung turned out to be 49.7 µM; in the experiment with COLO 205 colon it was 3.48 µM; in the experiment with A498 renal, 30.1 µM; in the experiment on K-562 leukemia it was 8.34 µM; in the experiment with U251 CNS it was 27.6 µM; with OVCAR-3 ovarian it was 19.5 µM. Moreover, the TGI worked out at 3.46 µM in the experiment with SF-539 CNS, 4.54 µM in the experiment with UACC-62 melanoma, 16.9 µM in the experiment with HL-60(TB) leukemia and 43.8 µM with SNB-19 CNS.

As to `CCc1nc(N)nc(N)c1-c1ccc(Cl)c(N=CN(C)C)c1`, the TGI is more than 81.5 µM with NCI-H23 lung; more than 100 µM in the experiment on COLO 205 colon; more than 100 µM with A498 renal; more than 100 µM in the experiment on K-562 leukemia; more than 100 µM in the experiment on U251 CNS; more than 100 µM in the experiment on OVCAR-3 ovarian. The TGI with SF-539 CNS is more than 100 µM; in the experiment on UACC-62 melanoma it was more than 100 µM; with HL-60(TB) leukemia it was more than 90.3 µM; with SNB-19 CNS it was more than 89.3 µM.

`O=C(NS(=O)(=O)c1ccccc1)C(Cc1ccccc1)C(Cc1ccccc1)C(=O)NS(=O)(=O)c1ccccc1` (stereo not given): the TGI in the experiment with NCI-H23 lung, in the experiment on COLO 205 colon, with A498 renal, in the experiment with K-562 leukemia, in the experiment with U251 CNS and in the experiment on OVCAR-3 ovarian was more than 100 µM in each case. The TGI in the experiment with SF-539 CNS, with UACC-62 melanoma, with HL-60(TB) leukemia and in the experiment with SNB-19 CNS was more than 100 µM each time.

`CN(C)CCN1C(=O)c2cccc3cccc(c23)C1=O`: the GI50 in the experiment on NCI-H23 lung is more than 25 µM; in the experiment with COLO 205 colon, 7.04 µM; with A498 renal it was 13.4 µM; in the experiment with K-562 leukemia, 9.68 µM; in the experiment with U251 CNS, 19.8 µM; in the experiment on OVCAR-3 ovarian, 21.5 µM. The GI50 is 15.6 µM with SF-539 CNS, 18.1 µM in the experiment on UACC-62 melanoma, 6.82 µM in the experiment with HL-60(TB) leukemia and 22.3 µM in the experiment with SNB-19 CNS. Moreover, the TGI with NCI-H23 lung, in the experiment with COLO 205 colon, with A498 renal, with K-562 leukemia, in the experiment on U251 CNS and in the experiment with OVCAR-3 ovarian was more than 25 µM in each case. Also, the TGI in the experiment on SF-539 CNS, in the experiment with UACC-62 melanoma, in the experiment with HL-60(TB) leukemia and in the experiment on SNB-19 CNS was more than 25 µM each time.

Turning to `COC(=O)CCC(=O)NC1C2CC3CC(C2)CC1C3` (stereo not given), the TGI with NCI-H23 lung, in the experiment on COLO 205 colon, in the experiment with A498 renal, with K-562 leukemia, in the experiment with U251 CNS and in the experiment with OVCAR-3 ovarian was more than 100 µM each time. In addition, the TGI with SF-539 CNS, in the experiment with UACC-62 melanoma, in the experiment on HL-60(TB) leukemia and in the experiment with SNB-19 CNS was more than 100 µM throughout.

Take `N#CC1=C(Cl)NC(Cl)=C(C#N)C1c1c(Cl)cccc1Cl`: the TGI is more than 100 µM in the experiment with NCI-H23 lung; 32.8 µM in the experiment with COLO 205 colon; more than 100 µM in the experiment with A498 renal; 46.9 µM with K-562 leukemia; 48.5 µM in the experiment on U251 CNS; 64.4 µM in the experiment with OVCAR-3 ovarian. Further, the TGI is more than 100 µM in the experiment with SF-539 CNS, 73.4 µM with UACC-62 melanoma, 37.5 µM in the experiment with HL-60(TB) leukemia and more than 100 µM with SNB-19 CNS.

Turning to `CC(Br)C(=O)Nc1ccc(C(=O)O)c(O)c1` (stereo not given), the TGI in the experiment on NCI-H23 lung was 68.9 µM; in the experiment with COLO 205 colon, more than 100 µM; in the experiment with A498 renal it was more than 100 µM; in the experiment on K-562 leukemia it was more than 100 µM; in the experiment with U251 CNS it was 62.8 µM; in the experiment with OVCAR-3 ovarian, 73.7 µM. For the same compound, the TGI in the experiment on SF-539 CNS, with UACC-62 melanoma, with HL-60(TB) leukemia and in the experiment with SNB-19 CNS was more than 100 µM each time.

As to `O=S(=O)(C/C(=N\O)c1ccccc1)c1ccccc1`, the TGI with NCI-H23 lung, with COLO 205 colon, in the experiment on A498 renal, in the experiment with K-562 leukemia, in the experiment on U251 CNS and in the experiment with OVCAR-3 ovarian was more than 100 µM throughout. The TGI in the experiment on SF-539 CNS, in the experiment on UACC-62 melanoma, with HL-60(TB) leukemia and in the experiment on SNB-19 CNS was more than 100 µM throughout.

Consider `Cn1c(=O)c(Oc2ccc(F)cc2F)cc2cnc(NCCS(C)(=O)=O)nc21`, for which the GI50 in the experiment on NCI-H23 lung, in the experiment with COLO 205 colon, in the experiment with A498 renal, in the experiment on K-562 leukemia, in the experiment with U251 CNS and in the experiment on OVCAR-3 ovarian was more than 25 µM in each case. Moreover, the GI50 with SF-539 CNS, in the experiment with UACC-62 melanoma, with HL-60(TB) leukemia and in the experiment with SNB-19 CNS was more than 25 µM in each case. Further, the TGI with NCI-H23 lung, with COLO 205 colon, with A498 renal, in the experiment on K-562 leukemia, in the experiment with U251 CNS and in the experiment on OVCAR-3 ovarian was more than 25 µM each time. In addition, the TGI in the experiment with SF-539 CNS, in the experiment on UACC-62 melanoma, in the experiment on HL-60(TB) leukemia and in the experiment on SNB-19 CNS was more than 25 µM each time.

For `Oc1ccc(Cl)cc1CNc1nc2ccccc2[nH]1`, the GI50 is 14.3 µM in the experiment on NCI-H23 lung; 16.8 µM in the experiment on COLO 205 colon; 0.141 µM in the experiment with A498 renal; 15.4 µM in the experiment with K-562 leukemia; 11.7 µM in the experiment on U251 CNS; 12.7 µM in the experiment on OVCAR-3 ovarian. The GI50 was 12.9 µM in the experiment on SF-539 CNS, 13.8 µM in the experiment with UACC-62 melanoma, 19.8 µM in the experiment with HL-60(TB) leukemia and 14.4 µM in the experiment with SNB-19 CNS. In addition, the TGI turned out to be 33.1 µM with NCI-H23 lung; 32.9 µM with COLO 205 colon; 18.2 µM in the experiment with A498 renal; 56 µM in the experiment with K-562 leukemia; 24.5 µM in the experiment on U251 CNS; 29 µM with OVCAR-3 ovarian. In addition, the TGI in the experiment on SF-539 CNS was 26.8 µM; with UACC-62 melanoma, 27.6 µM; in the experiment on HL-60(TB) leukemia it was more than 100 µM; in the experiment with SNB-19 CNS, 40.3 µM.

As to `O=C(Nc1ccc(I)cc1F)c1cc(Cl)ccc1O`, the GI50 in the experiment with NCI-H23 lung was 0.386 µM; with COLO 205 colon, 3.45 µM; with A498 renal, 0.176 µM; with K-562 leukemia, 0.429 µM; with U251 CNS, 0.59 µM; with OVCAR-3 ovarian it was 0.413 µM. In addition, the GI50 with SF-539 CNS was 0.409 µM; with UACC-62 melanoma it was 0.273 µM; in the experiment on HL-60(TB) leukemia, 0.441 µM; with SNB-19 CNS it was 0.372 µM. Further, the TGI with NCI-H23 lung was 3.79 µM; in the experiment on COLO 205 colon it was 11.2 µM; with A498 renal it was 0.585 µM; in the experiment with K-562 leukemia, more than 100 µM; in the experiment on U251 CNS it was more than 100 µM; in the experiment with OVCAR-3 ovarian, 10.7 µM. In addition, the TGI in the experiment with SF-539 CNS was 3.89 µM; with UACC-62 melanoma it was 1.05 µM; in the experiment with HL-60(TB) leukemia, 3.27 µM; in the experiment on SNB-19 CNS it was more than 100 µM.

The values above are taken from PubChem BioAssay (NCI).
